Results published in patent US20240132485A1, “HETEROCYCLIC CULLIN RING UBIQUITIN LIGASE COMPOUNDS AND USES THEREOF” (CEMM - FORSCHUNGSZENTRUM FÜR MOLEKULARE MEDIZIN GMBH, priority 2020, published 2024).

Legend:
UBE2M_MUT KBM7 cells = assay: Cell viability assay (CellTiter Glo), UBE2M mutant KBM7 clone, 3-day treatment; type: cell-based; settings: Homo sapiens, KBM-7, 72 h, UBE2M mutant KBM7, 3-day treatment, read-out: LC50 UBE2M_MUT
Protocol: (§1) KBM7^WT, UBE2M and CUL4B mutant KBM7 clones (UBE2M^mut and CUL4B^mut) were seeded at a cell density of 50,000 cells/mL in 96-well with DMSO or degraders Z1 to Z3, Z5 to Z7, Z9 to Z11, Z13 and Z14 in triplicates. Cells were treated for 3 days, after which a cell viability assay was performed (CellTiter Glo, Promega), according to manufacturer's protocol. Survival curves and IC50 values (LC50 values) were calculated by best-fit analysis of the log 10 drug concentration to fold change of drug-treated cells over DMSO-treated cells. All survival assays included technical triplicates per sample, per experiment.
(§2) Compounds, Z1 to Z3, Z5 to Z7, Z9 to Z11, Z13 and Z14, were tested for their antiproliferative effects in human leukemia cells (KBM7). These cells were either transduced with a control sgRNA (KBM7_WT), or with an sgRNA targeting UBE2M or CUL4B, leading to a hypomorph (deletion of six amino acids) with a functional impairment (UBE2M_MUT).
(§3) Indeed, 11 compounds Z1 to Z3, Z5 to Z7, Z9 to Z11, Z13 and Z14 were identified to fulfill these criteria and to stand out in terms of fold-change significance; see, e.g., FIG. 1 and Table 1. The dose ranging differential effect of these hits was assessed/validated, comparing their activity in KBM7_WT (KBM7^WT) vs UBE2_MUT and CUL4B_MUT cells (UBE2M^mut and CUL4B^mut).

KBM7_WT cells = assay: Cell viability assay (CellTiter Glo), KBM7 wild-type, 3-day treatment; type: cell-based; settings: Homo sapiens, KBM-7, 72 h, read-out: LC50 KBM7_WT
Protocol: as §1, §2, §3

CUL4B_MUT KBM7 cells = assay: Cell viability assay (CellTiter Glo), CUL4B mutant KBM7 clone, 3-day treatment; type: cell-based; settings: Homo sapiens, KBM-7, 72 h, CUL4B mutant KBM7, 3-day treatment, read-out: LC50 CUL4B_MUT
Protocol: as §1, §2, §3

CCNK = assay: NanoLuc-CCNK degradation assay (HEK293T_Nluc_CCNK-tagged cells); type: cell-based; settings: for NanoLuc-CCNK degradation DC50 Activity Class / DC50: 4 h incubation, HEK293T_Nluc_CCNK-tagged cells; for DC50: read-out: NanoLuc-CCNK degradation DC50 Activity Class
Procedure, shortened: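 HEK293T cells with nanoluciferase knocked in at the N-terminus of endogenous CCNK (CRISPR) exposed to a 10-point titration (0 to 10 μM, 1:4) in Opti-MEM I + 4% FBS for 4 h. Nano-Glo substrate then added and luminescence read as a measure of Cyclin K abundance.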

[1] = molecular target: T1, DDB1-CDK12/Cyclin K ternary complex (Homo sapiens, UniProt Q16531+Q9NYV4); assay: NanoBRET EC50 assay (HaloTag_CDK12 / NanoLuc_DDB1 in HEK293T); type: cell-based; settings: for NanoBRET EC50 Activity Class / EC50: 10-point titration from 20 μM, HEK293T; for EC50: read-out: NanoBRET EC50 Activity Class
T1 construct: expressed in transfected cells; host or cells: HEK293T wildtype cells, transient PEI transfection
T1 sequence (Q9NYV4 whole entry): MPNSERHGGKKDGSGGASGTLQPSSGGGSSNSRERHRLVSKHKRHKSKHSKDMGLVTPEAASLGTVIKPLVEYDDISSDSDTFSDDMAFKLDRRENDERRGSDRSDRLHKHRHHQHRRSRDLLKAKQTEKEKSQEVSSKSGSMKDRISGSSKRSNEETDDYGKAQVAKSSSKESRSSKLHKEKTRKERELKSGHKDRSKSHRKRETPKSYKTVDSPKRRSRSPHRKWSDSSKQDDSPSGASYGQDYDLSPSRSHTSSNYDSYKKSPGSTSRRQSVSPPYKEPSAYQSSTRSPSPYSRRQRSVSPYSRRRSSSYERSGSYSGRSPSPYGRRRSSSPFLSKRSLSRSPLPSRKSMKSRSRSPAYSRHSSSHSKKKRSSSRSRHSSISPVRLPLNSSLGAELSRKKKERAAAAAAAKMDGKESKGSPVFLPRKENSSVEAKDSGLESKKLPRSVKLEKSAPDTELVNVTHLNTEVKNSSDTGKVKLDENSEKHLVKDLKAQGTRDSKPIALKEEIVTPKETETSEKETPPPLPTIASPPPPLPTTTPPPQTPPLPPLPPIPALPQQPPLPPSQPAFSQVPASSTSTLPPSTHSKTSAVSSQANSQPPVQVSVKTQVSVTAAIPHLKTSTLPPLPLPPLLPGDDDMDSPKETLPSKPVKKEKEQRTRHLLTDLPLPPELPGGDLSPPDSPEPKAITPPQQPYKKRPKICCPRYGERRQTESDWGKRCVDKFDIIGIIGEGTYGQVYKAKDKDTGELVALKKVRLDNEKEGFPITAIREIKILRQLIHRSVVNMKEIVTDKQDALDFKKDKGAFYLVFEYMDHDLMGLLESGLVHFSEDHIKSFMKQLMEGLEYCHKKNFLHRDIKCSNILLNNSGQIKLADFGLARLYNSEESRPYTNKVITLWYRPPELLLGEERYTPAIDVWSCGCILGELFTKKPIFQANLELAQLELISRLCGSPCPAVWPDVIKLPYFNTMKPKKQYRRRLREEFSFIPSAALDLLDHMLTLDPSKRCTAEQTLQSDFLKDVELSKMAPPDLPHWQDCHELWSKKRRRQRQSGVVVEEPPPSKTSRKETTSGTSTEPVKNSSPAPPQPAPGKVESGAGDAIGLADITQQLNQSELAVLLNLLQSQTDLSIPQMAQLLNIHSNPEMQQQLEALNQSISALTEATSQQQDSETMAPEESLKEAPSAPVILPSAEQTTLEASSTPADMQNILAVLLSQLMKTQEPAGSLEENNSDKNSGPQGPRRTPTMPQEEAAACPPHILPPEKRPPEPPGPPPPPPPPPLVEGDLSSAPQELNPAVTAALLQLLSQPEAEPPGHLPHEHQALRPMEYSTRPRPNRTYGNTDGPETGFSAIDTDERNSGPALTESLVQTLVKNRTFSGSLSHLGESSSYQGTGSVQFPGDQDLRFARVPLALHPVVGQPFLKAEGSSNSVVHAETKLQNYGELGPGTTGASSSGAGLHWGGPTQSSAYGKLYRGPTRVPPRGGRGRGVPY
T1 sequence (Q16531 whole entry): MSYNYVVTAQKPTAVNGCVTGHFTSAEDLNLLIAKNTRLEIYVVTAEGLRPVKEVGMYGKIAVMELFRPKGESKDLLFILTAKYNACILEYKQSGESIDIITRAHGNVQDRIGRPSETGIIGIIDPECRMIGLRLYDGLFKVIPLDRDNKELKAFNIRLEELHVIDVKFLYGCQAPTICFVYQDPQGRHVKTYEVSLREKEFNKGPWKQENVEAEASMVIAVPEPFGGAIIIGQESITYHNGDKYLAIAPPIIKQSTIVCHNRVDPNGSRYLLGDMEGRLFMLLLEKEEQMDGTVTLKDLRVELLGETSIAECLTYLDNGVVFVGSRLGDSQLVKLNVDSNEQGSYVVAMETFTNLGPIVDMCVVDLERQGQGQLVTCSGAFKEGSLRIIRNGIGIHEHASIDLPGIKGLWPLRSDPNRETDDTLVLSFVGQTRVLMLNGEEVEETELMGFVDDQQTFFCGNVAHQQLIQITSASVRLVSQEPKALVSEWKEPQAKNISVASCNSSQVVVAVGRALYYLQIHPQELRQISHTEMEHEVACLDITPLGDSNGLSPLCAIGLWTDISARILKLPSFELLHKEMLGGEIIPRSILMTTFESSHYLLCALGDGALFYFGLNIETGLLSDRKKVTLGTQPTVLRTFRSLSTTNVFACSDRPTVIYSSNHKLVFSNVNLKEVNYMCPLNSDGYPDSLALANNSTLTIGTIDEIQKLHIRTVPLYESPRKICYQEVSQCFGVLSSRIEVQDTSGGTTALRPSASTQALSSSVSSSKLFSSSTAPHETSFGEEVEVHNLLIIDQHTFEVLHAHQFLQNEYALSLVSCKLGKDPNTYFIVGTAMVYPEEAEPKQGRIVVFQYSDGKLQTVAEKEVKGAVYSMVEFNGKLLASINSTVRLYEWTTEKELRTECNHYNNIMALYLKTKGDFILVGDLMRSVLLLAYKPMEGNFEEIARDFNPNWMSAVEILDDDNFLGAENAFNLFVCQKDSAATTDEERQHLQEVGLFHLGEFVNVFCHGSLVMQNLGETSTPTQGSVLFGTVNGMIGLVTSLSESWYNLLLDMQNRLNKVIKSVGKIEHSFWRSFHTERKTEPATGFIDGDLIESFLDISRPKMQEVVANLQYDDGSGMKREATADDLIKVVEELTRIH
T1 sequence (O75909 whole entry partner): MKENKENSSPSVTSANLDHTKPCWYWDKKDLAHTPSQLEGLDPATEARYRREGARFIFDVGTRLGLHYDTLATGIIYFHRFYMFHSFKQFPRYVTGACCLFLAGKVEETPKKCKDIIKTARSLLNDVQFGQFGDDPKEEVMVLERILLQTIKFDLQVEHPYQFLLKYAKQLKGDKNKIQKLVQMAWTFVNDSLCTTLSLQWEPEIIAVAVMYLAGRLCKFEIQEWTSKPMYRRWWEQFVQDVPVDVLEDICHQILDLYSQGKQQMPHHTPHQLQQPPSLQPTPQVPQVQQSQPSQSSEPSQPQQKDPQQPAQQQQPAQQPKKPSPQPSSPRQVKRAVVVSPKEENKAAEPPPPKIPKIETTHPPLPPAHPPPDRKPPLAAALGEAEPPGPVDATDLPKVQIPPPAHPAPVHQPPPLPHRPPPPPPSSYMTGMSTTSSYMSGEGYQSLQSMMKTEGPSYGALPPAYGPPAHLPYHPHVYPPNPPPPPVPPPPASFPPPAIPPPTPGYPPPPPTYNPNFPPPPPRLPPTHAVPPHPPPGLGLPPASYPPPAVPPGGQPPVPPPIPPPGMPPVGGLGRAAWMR
Protocol: This assay measures the interaction/recruitment of CDK12/Cyclin K to DDB1, mechanistically validating the molecular glue pharmacology.
HEK293T wildtype cells are seeded 800 k cells/well (DMEM+10% FBS+1% PS) in a 6-well plate and allowed to attach for ˜7 hours followed by a transient transfection of 1.5 μg HaloTag_CDK12 Plasmid [Table 1] and 0.15 μg NanoLuc_DDB1 plasmid [Table 1] per well using PEI. Cells are incubated at 37° C., 5% CO2, harvested after 24 hours and resuspended in assay media (Opti-MEM Reduced serum media, no phenol red, 4% FBS, 1% PS). Cells are adjusted to 2.3×10^5 cells/ml and treated with HaloTag 618 Ligand at 100 nM or DMSO. 8000 cells are seeded per well in triplicates per compound in a white-walled 384-well plate, one negative control treated with DMSO instead of HaloTag 618 Ligand is seeded in triplicates and the 384-well plate is incubated at 37° C., 5% CO2 overnight. Compound stock solutions are prepared in Opti-MEM−/− (Opti-MEM I Reduced serum media, no phenol red) at 8× and used to treat the cells at a final concentration of 1× at 10 μM. Cells and compounds are incubated for 10 minutes at room temperature followed by addition of NanoBRET Nano-Glo substrate following manufacturer's protocols. The plate is shaken for 30 sec followed by immediate measurement of donor emission (NanoBRET Blue at 460 nm) and acceptor emission (BRET Deep Red at 647 nm) for 0.5 s.
The assay setup is identical to “NanoBRET fold change experimental setup”. Instead of treating cells in […] with 10 μM compound, a 10-point titration starting at 20 μM is performed with a dilution factor of 1:4, covering α range of 20000 nM-0.076 nM.

[2] = molecular target: T1, DDB1-CDK12/Cyclin K ternary complex; assay: NanoBRET fold-change assay (HaloTag_CDK12 / NanoLuc_DDB1 in HEK293T); type: cell-based; settings: 10 μM compound, 10 minutes
Procedure, shortened: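 HEK293T cells transiently co-transfected with HaloTag_CDK12 and NanoLuc_DDB1, labelled overnight with 100 nM HaloTag 618 ligand (DMSO no-ligand control), then treated with compound at 10 μM final for 10 min at room temperature. BRET read as 460 nm donor and 647 nm acceptor emission after Nano-Glo substrate; reported as fold change.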

KBM7 cells (wild-type) = assay: KBM7 CTG EC50 assay (UBE2M wild-type); type: cell-based, human; settings: for EC50: Homo sapiens, KBM-7, 72 h incubation, CellTiter-Glo, read-out: KBM7 CTG EC50 (UBE2M wild-type) Activity Class; for Ratio UBE2M WT to KO: ratio of anti-proliferative activity in KBM7 wild-type versus UBE2M knock-out cells (fold)
Procedure, shortened: (§4)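 Wild-type KBM7 cells, or KBM7 cells with a hypomorphic UBE2M mutation that impairs Cullin-RING ligase activity, were treated for 72 h with compounds in a 10-point, 1:4 titration (0 to 20 μM). Viability was read by CellTiter-Glo 2.0 luminescence.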

[3] = test system: KBM7 cells harboring a hypomorphic UBE2M mutation; assay: KBM7 CTG EC50 assay (UBE2M knock-out); type: cell-based; settings: Homo sapiens, KBM-7; 72 h incubation, CellTiter-Glo; read-out: KBM7 CTG EC50 (UBE2M knock-out) Activity Class
Procedure, shortened: as §4

Compound | CC50 (UBE2M_MUT KBM7 cells) | CC50 (KBM7_WT cells) | CC50 (CUL4B_MUT KBM7 cells) | NanoLuc-CCNK degradation DC50 Activity Class (CCNK) | NanoBRET EC50 Activity Class [1] | NanoBRET fold-change Activity Class [2] | EC50 (KBM7 cells (wild-type)) | Ratio UBE2M WT to KO (KBM7 cells (wild-type)) | EC50 [3] | DC50 (CCNK) | EC50 [1] | activity in NanoLuc CCNK degradation assay, in words (CCNK) | activity in NanoBRET assay (ternary complex formation), in words [1] | dependence of cytotoxicity on UBE2M, in words (KBM7 cells (wild-type); KBM7 wild-type versus UBE2M mutant)
O=C1CC(CNc2ncc(Cl)cn2)CN1CCc1ccccc1 (stereo not drawn) [Example Z10] | > 10000 nM | 7820 nM | > 10000 nM |  |  |  |  |  |  |  |  |  |  | 
Cc1ccc2c(CC(=O)Nc3cc(C(F)(F)F)[nH]n3)coc2c1C [Example 3-48, 2-(6,7-dimethylbenzofuran-3-yl)-N-(5-(trifluoromethyl)-1H-pyrazol-3-yl)acetamide] |  |  |  | B (0.50 μM≤DC50<0.10 μM) | B (0.50 μM≤EC50≤0.25 μM) | B (3-4 fold increase) | ≤ 250 nM | 15.7 | 500 to 1000 nM |  |  |  |  | 
O=C(Cc1c[nH]c2ncccc12)Nc1ncc(C(F)(F)F)s1 [Example 3-38, 2-(1H-pyrrolo[2,3-b]pyridin-3-yl)-N-(5-(trifluoromethyl)thiazol-2-yl)acetamide] |  |  |  |  | C (1.0 μM≤EC50<0.50 μM) | B (3-4 fold increase) | 500 to 1000 nM | >10 | > 10000 nM | > 10000 nM |  |  |  | 
Cc1ccc2c(CC(=O)Nc3cc(Br)[nH]n3)coc2c1C [Example 3-47, N-(5-bromo-1H-pyrazol-3-yl)-2-(6,7-dimethylbenzofuran-3-yl)acetamide] |  |  |  |  | B (0.50 μM≤EC50≤0.25 μM) | A (greater than 4-fold increase) | ≤ 250 nM | 15.7 | 500 to 1000 nM | ≤ 100 nM |  |  |  | 
CC(C(=O)Nc1ncc(C(F)(F)F)s1)c1cnc2ccccc2c1 (stereo not drawn) [Example 3-35, 2-(quinolin-3-yl)-N-(5-(trifluoromethyl)thiazol-2-yl)propanamide] |  |  |  |  |  | A (greater than 4-fold increase) | ≤ 250 nM | 15.1 | ≤ 250 nM | ≤ 100 nM | ≤ 250 nM |  |  | 
Cc1ccc2c(CC(=O)Nc3ncc(C4CC4)s3)coc2c1C [Example 3-42, N-(5-cyclopropylthiazol-2-yl)-2-(6,7-dimethylbenzofuran-3-yl)acetamide] |  |  |  |  | C (1.0 μM≤EC50<0.50 μM) | A (greater than 4-fold increase) | ≤ 250 nM | 8.5 | ≤ 250 nM | ≤ 100 nM |  |  |  | 
Cc1cc(N2CC(C(=O)Nc3ncc(C(F)(F)F)s3)CC2=O)ccc1F (stereo not drawn) [Example 3-17, 1-(4-fluoro-3-methylphenyl)-5-oxo-N-(5-(trifluoromethyl)thiazol-2-yl)pyrrolidine-3-carboxamide] |  |  |  |  | B (0.50 μM≤EC50≤0.25 μM) | A (greater than 4-fold increase) | ≤ 250 nM | 17.0 | 250 to 500 nM | ≤ 100 nM |  |  |  | 
O=C(CCn1cnc2ccccc2c1=O)Nc1ncc(C(F)(F)F)s1 [Example 3-63, 3-(4-oxoquinazolin-3(4H)-yl)-N-(5-(trifluoromethyl)thiazol-2-yl)propanamide] |  |  |  | B (0.50 μM≤DC50<0.10 μM) |  | B (3-4 fold increase) | ≤ 250 nM | 13.9 | 1000 to 10000 nM |  | > 10000 nM |  |  | 
COc1cc2ncn(CCC(=O)Nc3ncc(C(F)(F)F)s3)c(=O)c2cc1OC [Example 3-64, 3-(6,7-dimethoxy-4-oxoquinazolin-3(4H)-yl)-N-(5-(trifluoromethyl)thiazol-2-yl)propanamide] |  |  |  |  |  | A (greater than 4-fold increase) | ≤ 250 nM | 21.9 | 500 to 1000 nM | ≤ 100 nM | > 10000 nM |  |  | 
Cc1ccc(NC(=O)Cc2coc3c(C)c(C)ccc23)nc1 [Example 3-50, 2-(6,7-dimethylbenzofuran-3-yl)-N-(5-methylpyridin-2-yl)acetamide] |  |  |  | D (10 μM≤DC50<1.0 μM) |  | A (greater than 4-fold increase) | 250 to 500 nM | >10 | > 10000 nM |  | ≤ 250 nM |  |  | 
O=C(Cc1cn2cc(Cl)ccc2n1)Nc1cc(C2CC2)[nH]n1 [Example 3-66, N-(5-cyclopropyl-1H-pyrazol-3-yl)-2-(6-chloroimidazo[1,2-a]pyridin-2-yl)acetamide] |  |  |  |  |  | A (greater than 4-fold increase) | ≤ 250 nM | 388.0 | ≤ 250 nM | ≤ 100 nM | ≤ 250 nM | particularly exceptional | particularly exceptional | very strong dependence
Cc1ccc2c(CC(=O)Nc3ccc(Br)cn3)coc2c1C [Example 3-53, N-(5-bromopyridin-2-yl)-2-(6,7-dimethylbenzofuran-3-yl)acetamide] |  |  |  | B (0.50 μM≤DC50<0.10 μM) |  | B (3-4 fold increase) | ≤ 250 nM | 22.7 | 1000 to 10000 nM |  | > 10000 nM |  |  | 
